Tests used:
Type in all cases: binding
DOT1L (1-416) = target: T1, DOT1L (1-416) (Homo sapiens, UniProt Q8TEK3); test: STD-NMR fragment screening, DOT1L; conditions: 1 = hit, 0 = no hit
T1 construct: made in house; host or cells: E. coli BL21 (DE3) pLysS
Description: (§1) All fragments were stored at −20°C as solids in argon flushed glass bottles. For NMR screening, fragments were weighed and dissolved in DMSO-d6 to a stock concentration of 300 mM. Mother plates were prepared with a 100 mM concentration. From these plates, daughter plates were prepared with the fragments mixed in the plates to a concentration of 50 mM for each fragment. Daughter plates were opened a maximum of eight times. The plates were argon flushed and sealed with a HT121TS (HTA) and Foil Heat Seal (Biozym).
(§2) For long time measurements, like the protein ^1H NMR spectrum, the buffer exchange was performed twice to reduce residual buffer peaks. All experiments were performed on a Bruker Avance III HDX 700 instrument, equipped with a 5 mm Prodigy TCI cryo-probehead. For every protein, a standard ^1H NMR experiment with 1 k scans and water suppression through presaturation was performed. […] The on-resonance frequency, which was determined from the ^1H NMR spectra of the protein, was between 0.5 and 0.6 ppm; 40 ppm was used as the off-resonance frequency. For an interleaved acquisition of the on- and off-resonance, a pseudo-2D scheme was applied. The saturation was done by Gaussian pulses with a length of 50 ms and 60 dB of attenuation, with an interpulse delay of 1 ms leading to an excitation bandwidth of about 42 Hz. The screening was done with 16 scans of on- and off-resonance scans each, with a 3 s saturation time. The samples contained final concentrations of 20 µM protein, 10% (^V/V) DMSO-d6, and 1 mM of each of the two fragments. A ^1H-NMR experiment was performed for each compound to act as a reference spectrum in the STD experiments. All NMR experiments were carried out at 25°C.
(§3) Fifteen of these compounds contain the same halogen twice. No compound bears mixtures of different halogen atoms. Four proteins (AAK1, CAMK1G, IDO1, and DOT1L) were screened against this HEFLib using STD-NMR. A fragment was considered a hit if the peak intensity in the difference spectrum was three times higher than the local background noise. […] Chemical compatibility and peak complementarity were assured for these mixtures. Samples containing more than two fragments were avoided to minimize the possible target competition and to decrease the risk of fragment interactions. […] The ^1H reference NMR spectrum of the mixture is shown in red for comparison. […] As fragment mixtures can lead to competitive effects between their fragments, it is not advised to use the quantification of peak mixtures for hit ranking.

CAMK1G (1-320) = target: T2, CAMK1G (1-320) (Homo sapiens, UniProt Q96NX5); test: STD-NMR fragment screening, CAMK1G; conditions: 1 = hit, 0 = no hit
T2 construct: made in house; host or cells: E. coli BL21 (DE3) pLysS
T2 sequence (Q96NX5 1-320): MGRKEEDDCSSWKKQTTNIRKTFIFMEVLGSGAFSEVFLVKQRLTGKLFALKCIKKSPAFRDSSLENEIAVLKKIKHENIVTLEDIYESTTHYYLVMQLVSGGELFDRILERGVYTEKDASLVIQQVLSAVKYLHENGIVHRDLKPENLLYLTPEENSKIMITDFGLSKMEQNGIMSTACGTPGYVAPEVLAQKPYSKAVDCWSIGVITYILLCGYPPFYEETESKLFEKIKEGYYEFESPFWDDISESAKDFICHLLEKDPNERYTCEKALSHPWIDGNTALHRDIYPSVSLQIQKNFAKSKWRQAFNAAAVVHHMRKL
Description: as §1, §2, §3

IDO1 (1-435) = target: T3, IDO1 (1-435) (Homo sapiens, UniProt P14902); test: STD-NMR fragment screening, IDO1; conditions: 1 = hit, 0 = no hit
T3 construct: His-tag of pET15b with TEV site (thrombin site replaced) (cleaved yes); made in house; host or cells: E. coli Rosetta 2 (DE3) pLysS
T3 sequence (P14902 whole entry, the tested form may be a part): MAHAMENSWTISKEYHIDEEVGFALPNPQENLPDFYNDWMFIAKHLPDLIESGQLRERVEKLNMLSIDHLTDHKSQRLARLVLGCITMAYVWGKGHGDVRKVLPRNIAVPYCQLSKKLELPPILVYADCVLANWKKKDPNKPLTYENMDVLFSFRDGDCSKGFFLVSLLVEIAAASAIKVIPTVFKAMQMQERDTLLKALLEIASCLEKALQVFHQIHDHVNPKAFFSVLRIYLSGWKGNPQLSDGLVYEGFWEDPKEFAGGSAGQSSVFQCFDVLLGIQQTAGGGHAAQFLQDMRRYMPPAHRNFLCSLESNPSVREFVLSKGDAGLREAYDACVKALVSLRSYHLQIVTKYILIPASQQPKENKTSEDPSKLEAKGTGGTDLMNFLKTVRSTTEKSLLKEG
Description: as §1, §2, §3

AAK1 (121-471) = AAK1 (121-471) (Homo sapiens, UniProt Q2M2I8); test: STD-NMR fragment screening, AAK1; conditions: for AAK1 (STD-NMR hit flag): 1 = hit, 0 = no hit
AAK1 (121-471), sequence (Q2M2I8 46-315 limits assumed): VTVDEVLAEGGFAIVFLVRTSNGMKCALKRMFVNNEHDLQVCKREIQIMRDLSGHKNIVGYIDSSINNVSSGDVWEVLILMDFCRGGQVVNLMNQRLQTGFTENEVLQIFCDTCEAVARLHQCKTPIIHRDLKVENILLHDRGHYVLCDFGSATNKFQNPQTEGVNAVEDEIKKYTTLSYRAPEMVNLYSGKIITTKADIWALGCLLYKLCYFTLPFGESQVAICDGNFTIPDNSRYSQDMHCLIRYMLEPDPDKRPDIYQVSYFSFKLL
Description: as §1, §2, §3

T1 sequence (Q8TEK3 1-416): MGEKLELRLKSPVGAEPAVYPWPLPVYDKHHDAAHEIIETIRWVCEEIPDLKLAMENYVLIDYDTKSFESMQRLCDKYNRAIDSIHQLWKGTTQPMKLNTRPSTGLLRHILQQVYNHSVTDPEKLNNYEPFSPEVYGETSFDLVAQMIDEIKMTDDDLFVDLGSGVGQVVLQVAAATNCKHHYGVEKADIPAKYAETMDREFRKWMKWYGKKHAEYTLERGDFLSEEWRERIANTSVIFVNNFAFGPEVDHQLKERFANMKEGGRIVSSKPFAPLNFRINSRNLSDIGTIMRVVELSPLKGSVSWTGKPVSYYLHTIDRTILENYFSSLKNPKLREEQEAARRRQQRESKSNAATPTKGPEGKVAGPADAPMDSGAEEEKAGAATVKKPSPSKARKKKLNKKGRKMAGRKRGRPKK

Row | DOT1L (STD-NMR hit flag) (DOT1L (1-416)) | CAMK1G (STD-NMR hit flag) (CAMK1G (1-320)) | IDO1 (STD-NMR hit flag) (IDO1 (1-435)) | AAK1 (STD-NMR hit flag) (AAK1 (121-471)) | SMILES | STD-NMR hit (AAK1 (121-471); 1 mM fragment, 20 µM protein, hit if peak in difference spectrum three times higher than local noise)
1 | 0 | 0 | 0 | 0 | Clc1ncccn1 [Fragment B02291224] | –
2 | 0 | 0 | 0 | 0 | Nc1ncnc(C(=O)O)c1Cl [Fragment B02290472] | –
3 | 0 | 0 | 0 | 0 | O=C(O)c1cnccc1Br [Fragment B02297403] | –
4 | 0 | 0 | 0 | 0 | O=C(O)c1cccc(Cl)n1 [Fragment B02289597] | –
5 | 0 | 0 | 0 | 0 | OB(O)c1ccncc1Br [Fragment B02297399] | –
6 | 0 | 0 | 0 | 0 | Cc1c(Cl)c(C(=O)O)nn1C [Fragment B02291218] | –
7 | 0 | 0 | 0 | 0 | CC(C(=O)O)n1cc(Br)cn1 (stereo not drawn) [Fragment B02290114] | –
8 | 0 | 0 | 0 | 0 | NCc1cc(Cl)c2c(c1)OCCCO2 [Fragment B02291242] | –
9 | 0 | 0 | 0 | 0 | O=C(O)c1nn(Cn2cccn2)cc1Cl [Fragment B02291154] | –
10 | 0 | 0 | 0 | 0 | NCCCn1cc(Cl)cn1 [Fragment B02290117] | –
11 | 1 | 1 | 1 | 1 | Cn1c(Cl)c(C#N)c(=O)n(C)c1=O [Fragment B02291234] | –
12 | 0 | 0 | 0 | 0 | CS(=O)(=O)c1ccc(Cl)c(S(C)(=O)=O)c1 [Fragment B02291213] | –
13 | 0 | 0 | 0 | 0 | CS(=O)(=O)c1ncc(Cl)c(C(=O)O)n1 [Fragment B02291223] | –
14 | 0 | 0 | 0 | 0 | O=C(O)c1sccc1Cl [Fragment B02297398] | –
15 | 0 | 0 | 0 | 0 | FC(F)(F)c1cnc(Cl)nc1 [Fragment B02294482] | –
16 | 0 | 1 | 1 | 1 | CC(=O)c1c[nH]c2ncnc(Cl)c12 [Fragment B02290661] | –
17 | – | – | – | – | Oc1ccc(Cl)cc1 [Fragment 4485] | none of the signals of fragment 4485 (Signal 4 and 5) are distinguishable from the baseline noise

Row | SMILES | DOT1L (STD-NMR hit flag) (DOT1L (1-416)) | CAMK1G (STD-NMR hit flag) (CAMK1G (1-320)) | IDO1 (STD-NMR hit flag) (IDO1 (1-435)) | AAK1 (STD-NMR hit flag) (AAK1 (121-471)) | STD-NMR hit (AAK1 (121-471); 1 mM fragment, 20 µM protein, hit if peak in difference spectrum three times higher than local noise)
18 | NS(=O)(=O)c1cc(C(=O)O)ccc1Cl [Fragment B02291263] | 0 | 0 | 0 | 0 | –
19 | CN1CCN(C(CN)c2ccccc2Cl)CC1 (stereo not drawn) [Fragment B02290483] | 0 | 0 | 0 | 0 | –
20 | Clc1ccc(CN2CCNCC2)s1 [Fragment B02291241] | 0 | 0 | 0 | 0 | –
21 | Oc1ccc(Cl)cc1 [Fragment B02294485] | 0 | 0 | 0 | 0 | –

Reference: PMC8847695 (Frontiers in Chemistry, 2022)
